# Assay results: US7772192B2, “Compositions and methods for treatment of disease with acetylated disaccharides” (The Regents of the University of California, priority 2003, dated 2010)
# Columns and labels:
# [1] = system: LS180 cells adhering to recombinant P-selectin; experiment: Cell adhesion to immobilized P-selectin; format: cell-based, human; conditions: LS180 cells grown 5 days with disaccharide
# Method: Cell adhesion to immobilized selectins. 96-well plates were coated overnight at 4° C. with recombinant E-selectin (4 μg/ml) or P-selectin (2 μg/ml) (R & D Systems) and blocked with 1% BSA/PBS. LS180 cells were grown for 5 days with various amounts of acetylated disaccharide, harvested, labeled with Calcein AM (5 μM, Molecular Probes) in DMEM/1% FBS, and allowed to settle at room temperature on selectin-coated wells (5×10^4 cells/well). Plates were then stirred at 75 rpm for 30 min (Orbit shaker, Lab-Line Instruments) followed by immersion upside-down in a vessel filled with Hank's buffered saline solution (HBSS, Sigma), which allowed non-adherent cells to fall under gravity. St John et al., J. Immunol Methods, 170: 159-166, 1994. The wells were then washed by aspiration using HBSS. LS180 cells were less adherent to P-selectin, so the immersion step was not necessary prior to washing. […] Fluorescence was measured using a 96-well fluorimeter (CytoFluor II), and the average of triplicate measurements was determined±standard error. Cell viability was judged to be >90% by Trypan blue exclusion at the end of each experiment.
# Adhesion to selectins is altered in disaccharide-treated tumor cells. Treatment of LS180 cells with AcGnG-NM was not toxic to the cells up to 100 μM based on growth curves and exclusion of Trypan blue. […]
# LS180 cells [2] = experiment: Biodistribution of pretreated radiolabeled tumor cells in mice; format: in vivo
# Method: Biodistribution studies in mice. LS180 cells were grown for 3 days in the presence or absence of 50 μM AcGnG-NM. [^3H-methyl]thymidine (10 μCi/ml, NEN Life Sciences Products) was added to the medium, and cells were incubated for another 3 days. The cells were then harvested with EDTA, resuspended in sterile 0.9% saline, and injected (1×10^5 cells/100 μL) into the lateral tail vein of anesthetized (inhaled methoxyflurane, Janssen Pharmaceuticals) 6-8 week-old wildtype C57BL/6 mice or P-selectin deficient mice bred on the same background (Jackson Laboratory). Mayadas et al., Cell, 74: 541-554, 1993. […] The organs were digested at 55° C. overnight with Proteinase K (0.15 μg/ml, Boehringer Mannheim) in 2 mL PBS containing 1% sodium dodecyl sulfate, and homogenized by repeated passage through an 18 gauge needle. The amount of radioactive DNA in the blood and the organ extracts was then determined using an Easy DNA Kit (Invitrogen) and liquid scintillation spectrometry. The total counts in blood were estimated by assuming a total blood volume of 2 mL per mouse. Proper attention has been given to experimental ethical considerations towards animals as prescribed by the Animal Subjects Program at the University of California.
# Altered biodistribution of AcGnG-NM treated tumor cells. The lung is the major “first-pass” adhesion target for tumor cells introduced into the venous circulation. […] Radiolabeled cells were injected into the lateral tail vein of C57BL/6 mice, and allowed to circulate for 3 hours. Mice were sacrificed and DNA was extracted from organ homogenates and whole blood. The counts were normalized to the total recovered counts, which typically represented 80-90% of the injected samples. In FIG. 6A, each value represents the average recoveries from 4 wildtype mice±standard deviation from the mean. In FIG. 6B, the experiment was repeated in P-selectin deficient C57BL/6 mice that were injected with either control- or AcGnG-NM-treated LS180 cells. […]
# LS180 cells [3] = experiment: Metastatic lung tumor formation in SCID mice (LS180); format: in vivo
# Method: Tumor formation. LS180 cells were grown in the presence or absence of 50 μM AcGnG-NM for 6 days, harvested with EDTA, and resuspended in sterile PBS. Approximately 3×10^5 tumor cells in 150 μl PBS were injected into the lateral tail vein of anesthetized 7 week-old immunodeficient mice (Fox Chase SCID; Charles River). The mice were then maintained in microbe-free housing with free access to standard laboratory chow and water, and inspected regularly for any signs of distress. After 4 weeks, mice were euthanized by CO2 asphyxiation under anesthesia, and lungs, livers, brains, kidneys/adrenals, and spleens were fixed in Bouin's solution (Sigma) for 6 hr followed by transfer to 70% ethanol. Lungs for each animal were inspected under a dissecting microscope for the total number of surface tumors. Histologic sections (hematoxylin/eosin) were examined for tumor foci, and representative photomicrographs were taken. The other organs were also reviewed histologically for any tumor foci.
# Impairment of metastatic tumor formation. Prior studies have shown that deletion of P-selectin in mice alters the tumorigenicity of hematogenously distributed LS180 cells. Kim et al., Proc. Natl. Acad. Sci. USA, 95: 9325-9330, 1998. […] After 4 weeks, the animals were sacrificed and formation of lung tumor foci was assessed at necropsy by counting nodules on the lung surface and in histologic sections.
# LLC cells = experiment: In vitro characterization of LLC cells (CSLEX-1 binding, lectin and PsIg flow cytometry); format: cell-based
# Method: LLC cells were treated in culture for 4 days in the absence or presence of 50 μM peracetylated GlcNAcβ3Gal-NM. To quantitate sLex on the surface of LLC cells monoclonal antibody, CSLEX-1 binding to the cells was measured as described (Brown et al, J. Biol. Chem. 278: 23352-23359, 2003). […] Flow cytometry measures cell surface carbohydrate structures (Koenig et al, 1998). AAL and MAH are plant lectins. […] LLC cells have higher sialyltransferase activity than fucosyltransferase activity.
# U937 cells = experiment: sLe^X expression in U937 cells; format: cell-based
# Text: A 4-deoxy modified acetylated disaccharide inhibits sLe^X expression in the absence of oligosaccharide priming.
# [4] = wildtype C57BL/6 mice, 3 hours, cells pretreated with 50 μM
substance,measurement,setting,value
"GlcNAcβ1,3Galβ-O-naphthalenemethanol [AcGnG-NM]",adhesion to recombinant P-selectin,[1],reduced the ability of LS180 cells to adhere
same,distribution of treated versus untreated cells,LS180 cells [2]; P-selectin deficient mice,no difference
same,counts recovered in the blood compartment,LS180 cells [2]; [4],corresponding increase
same,seeding of the lungs,LS180 cells [2]; [4],substantially reduced
same,lung tumor foci,"LS180 cells [3]; cells pretreated with 50 μM for 6 days, 4 weeks, n=8, p<0.0002",less numerous
same,tumor size,LS180 cells [3]; treated versus untreated cells,approximately the same
same,sLex expression (CSLEX-1 binding),"LLC cells; 50 μM, 4 days",reduces sLex expression
same,AAL reactivity (fucose),LLC cells; flow cytometry,reduces AAL reactivity
same,sialylation (MAH),LLC cells; flow cytometry,no effect on sialylation
same,sLe^X expression,U937 cells,inhibit sLe^X expression
